Results published in patent publication US10301280B2 (Plexxikon Inc., priority 2012, dated 2019).

tested on: BaF3-FL KIT D816V or BaF3-FL KIT V560G/D816V cell line; test: Cell-based assays of c-Kit mutant kinase activity (cell growth, ATPlite); details: at least one of the c-kit cell assays of Example 26
Protocol: The c-Kit mutant D816V inhibitors were assessed using an engineered BaF3-FL KIT D816V or BaF3-FL KIT V560G/D816V cell line. The BaF3-FL KIT D816V cell lines were created by introduction of KIT mutant (D816V) full length constructs that render the cells dependent on the introduced kinase for growth. Inhibitors of c-Kit mutant D816V kinase reduce or eliminate the mediated c-kit mutant D816V kinase activation, resulting in reduced cell proliferation of the BaF3-FL Kit mutant D816V cells. This inhibition is measured by the effect of compound concentration on cell growth to assess IC50 values. BaF3-FL KIT D816V cells were seeded at 1×10^4 cells per well of a 96 well cell culture plate in 50 μl of cell culture medium of RPMI Medium 1X (Invitrogen #11875-093) supplemented with 10% FBS (Invitrogen #10438), 1% Non Essential Amino Acids(Invitrogen #11140), 1% Penicillin Streptomycin (Invitrogen #15140), 1% L-Glutamine (Invitrogen #25030-081). Compounds were dissolved in DMSO at a concentration of 5 mM and were serially diluted 1:3 for a total of eight points and added to the cells to a final maximum concentration of 10 μM in 100 μl cell culture medium (final concentration 0.2% DMSO). Cells were also treated with Dasatinib as a positive control. The cells were incubated at 37° C., 5% CO2 for three days. ATPlite Buffer (Perkin Elmer #6016739) and substrate were equilibrated to room temperature, and enzyme/substrate Recombinant Firefly Luciferase/D-Luciferin was reconstituted. The cell plates were equilibrated to room temperature for 30 minutes, then lysed by addition of 25 uL per well of the ATPlite Reagent. The plate was mixed for 5 minutes on a plate shaker to lyse the cells. The plates were read on a Tecan Safire using Luminescence protocol modified to read 0.1 s per well. The luminescence reading assesses the ATP content, which correlates directly with cell number such that the reading as a function of compound concentration is used to determine the IC50 value.
Plasmids P75635 and P75565 were engineered for mammalian cell expression. In both plasmids, full-length human v-kit Hardy-Zuckerman 4 feline sarcoma viral oncogene homolog gene (NCBI accession NM_000222, KIT, residues M1-V976) was subcloned into the pCI-Neo vector (Promega E1841). Plasmid P75635 contains the mutation of residue Aspartic acid 816 to Valine. Plasmid P75565 contains the double mutation of residues Valine 560 to Glycine and Aspartic acid 816 to Valine. The pCI-neo Mammalian Expression Vector carries the human cytomegalovirus (CMV) immediate-early enhancer/promoter region to promote constitutive expression of KIT and contains the neomycin phosphotransferase gene, a selectable marker.
It is understood that the results of these assays may vary as assay conditions are varied. Inhibition levels determined under the conditions described herein represent a relative activity for the compounds tested under the specific conditions employed. The cell based assays are likely to show variability due to the complexity of the system and the sensitivity thereof to any changes in the assay conditions. […] In some instances, the compounds were not tested in all of the assays, or assay results were not valid.

SMILES | IC50
O=C(Nc1cc[nH]n1)c1cnc2[nH]c(-c3ccccc3)cc2c1 [P-2004, 2-phenyl-N-(1H-pyrazol-3-yl)-1H-pyrrolo[2,3-b]pyridine-5-carboxamide] | < 10 µM
Cc1n[nH]c(C(=O)Nc2cnc3[nH]c(-c4cnn(CC(C)C)c4)cc3c2)c1C [P-2083, N-[2-(1-isobutylpyrazol-4-yl)-1H-pyrrolo[2,3-b]pyridin-5-yl]-3,4-dimethyl-1H-pyrazole-5-carboxamide] | < 10 µM
Cc1n[nH]c(C(=O)Nc2cnc3[nH]c(-c4ccccc4F)cc3c2)c1C [P-2093, N-[2-(2-fluorophenyl)-1H-pyrrolo[2,3-b]pyridin-5-yl]-3,4-dimethyl-1H-pyrazole-5-carboxamide] | < 10 µM
Cc1n[nH]c(C(=O)Nc2cnc3[nH]c(-c4ccc(N5CCOCC5)nc4)cc3c2)c1C [P-2089, 3,4-dimethyl-N-[2-(6-morpholino-3-pyridyl)-1H-pyrrolo[2,3-b]pyridin-5-yl]-1H-pyrazole-5-carboxamide] | < 10 µM
O=C(Nc1cnc2[nH]c(-c3ccccc3)cc2c1)c1n[nH]c(Cl)c1C(F)F [P-2236, 5-chloro-4-(difluoromethyl)-N-(2-phenyl-1H-pyrrolo[2,3-b]pyridin-5-yl)-1H-pyrazole-3-carboxamide] | < 10 µM
O=C(Nc1cnc2[nH]c(-c3ccccc3)cc2c1)c1n[nH]c(C(F)(F)F)c1Cl [P-2232, 4-chloro-N-(2-phenyl-1H-pyrrolo[2,3-b]pyridin-5-yl)-5-(trifluoromethyl)-1H-pyrazole-3-carboxamide] | < 10 µM
Cc1[nH]nc(C(=O)Nc2cnc3[nH]c(-c4cnn(C5CCNCC5)c4C)cc3c2)c1C [P-2198, 4,5-dimethyl-N-(2-(5-methyl-1-(piperidin-4-yl)-1H-pyrazol-4-yl)-1H-pyrrolo[2,3-b]pyridin-5-yl)-1H-pyrazole-3-carboxamide] | < 10 µM
Cc1c(C(=O)Nc2cnc3[nH]c(-c4ccccc4)cc3c2)n[nH]c1C(F)F [P-2234, 5-(difluoromethyl)-4-methyl-N-(2-phenyl-1H-pyrrolo[2,3-b]pyridin-5-yl)-1H-pyrazole-3-carboxamide] | < 10 µM
Cc1cccc(Cl)c1C(=O)Nc1cnc2[nH]c(-c3ccc(F)cc3)cc2c1 [P-2022, 2-chloro-N-[2-(4-fluorophenyl)-1H-pyrrolo[2,3-b]pyridin-5-yl]-6-methyl-benzamide] | < 10 µM
CC(=O)Nc1ccc(-c2cc3cc(NC(=O)c4[nH]nc(C)c4C)cnc3[nH]2)cc1 [P-2137, N-[2-(4-acetamidophenyl)-1H-pyrrolo[2,3-b]pyridin-5-yl]-3,4-dimethyl-1H-pyrazole-5-carboxamide] | < 10 µM
Cc1nc(C)c(-c2cc3cc(NC(=O)c4[nH]nc(C)c4C)cnc3[nH]2)s1 [P-2139, N-[2-(2,4-dimethylthiazol-5-yl)-1H-pyrrolo[2,3-b]pyridin-5-yl]-3,4-dimethyl-1H-pyrazole-5-carboxamide] | < 10 µM
Cc1n[nH]c(C(=O)Nc2cnc3[nH]c(-c4ccc(C(=O)N5CCCC5)cc4)cc3c2)c1C [P-2101, 3,4-dimethyl-N-[2-[4-(pyrrolidine-1-carbonyl)phenyl]-1H-pyrrolo[2,3-b]pyridin-5-yl]-1H-pyrazole-5-carboxamide] | < 10 µM
Cc1[nH]nc(C(=O)Nc2cnc3[nH]cc(-c4cccc(N5CCOCC5)n4)c3c2)c1C [P-2192, 4,5-dimethyl-N-(3-(6-morpholinopyridin-2-yl)-1H-pyrrolo[2,3-b]pyridin-5-yl)-1H-pyrazole-3-carboxamide] | < 10 µM
Cc1c(-c2ccccc2)n[nH]c1C(=O)Nc1cnc2[nH]c(-c3ccccc3)cc2c1 [P-2008, 4-methyl-3-phenyl-N-(2-phenyl-1H-pyrrolo[2,3-b]pyridin-5-yl)-1H-pyrazole-5-carboxamide] | < 10 µM
Cc1n[nH]c(C(=O)Nc2cnc3[nH]c(-c4ccc(N5CCCC5)cc4)cc3c2)c1C [P-2125, 3,4-dimethyl-N-[2-(4-pyrrolidin-1-ylphenyl)-1H-pyrrolo[2,3-b]pyridin-5-yl]-1H-pyrazole-5-carboxamide] | < 10 µM

Next, values leading:

IC50 | SMILES
< 10 µM | Cc1[nH]nc(C(=O)Nc2cnc3[nH]c(-c4ccnc(C5CCNCC5)c4)cc3c2)c1C [P-2211, 4,5-dimethyl-N-(2-(2-(piperidin-4-yl)pyridin-4-yl)-1H-pyrrolo[2,3-b]pyridin-5-yl)-1H-pyrazole-3-carboxamide]
< 10 µM | COc1ccc(-c2cc3cc(NC(=O)c4n[nH]c(C)c4C)cnc3[nH]2)c(OC)n1 [P-2242, N-(2-(2,6-dimethoxypyridin-3-yl)-1H-pyrrolo[2,3-b]pyridin-5-yl)-4,5-dimethyl-1H-pyrazole-3-carboxamide]
< 10 µM | Cc1[nH]nc(C(=O)Nc2cnc3[nH]c(-c4ccccc4OC(F)F)cc3c2)c1C [P-2263, N-(2-(2-(difluoromethoxy)phenyl)-1H-pyrrolo[2,3-b]pyridin-5-yl)-4,5-dimethyl-1H-pyrazole-3-carboxamide]
< 10 µM | Cc1[nH]nc(C(=O)Nc2cnc3[nH]c(-c4ccnc(C(=O)N5CCSCC5)c4)cc3c2)c1C [P-2219, 4,5-dimethyl-N-(2-(2-(thiomorpholine-4-carbonyl)pyridin-4-yl)-1H-pyrrolo[2,3-b]pyridin-5-yl)-1H-pyrazole-3-carboxamide]
< 10 µM | Cc1cc(-c2cc3cc(NC(=O)c4n[nH]c(C)c4C)cnc3[nH]2)cnc1C [P-2244, N-(2-(5,6-dimethylpyridin-3-yl)-H-pyrrolo[2,3-b]pyridin-5-yl)-4,5-dimethyl-1H-pyrazole-3-carboxamide]
< 10 µM | Cc1[nH]nc(C(=O)Nc2cnc3[nH]c(-c4ccnc(N5CCCC(O)C5)c4)cc3c2)c1C (centres unmarked) [P-2213, N-(2-(2-(3-hydroxypiperidin-1-yl)pyridin-4-yl)-1H-pyrrolo[2,3-b]pyridin-5-yl)-4,5-dimethyl-1H-pyrazole-3-carboxamide]
< 10 µM | Cc1[nH]nc(C(=O)Nc2cnc3[nH]c(-c4ccnc(OC(C)C)c4)cc3c2)c1C [P-2248, N-(2-(2-isopropoxypyridin-4-yl)-1H-pyrrolo[2,3-b]pyridin-5-yl)-4,5-dimethyl-1H-pyrazole-3-carboxamide]
< 10 µM | Cc1[nH]nc(C(=O)Nc2cnc3[nH]c(-c4ccnc(N5CCC(O)CC5)c4)cc3c2)c1C [P-2212, N-(2-(2-(4-hydroxypiperidin-1-yl)pyridin-4-yl)-1H-pyrrolo[2,3-b]pyridin-5-yl)-4,5-dimethyl-1H-pyrazole-3-carboxamide]
< 10 µM | Cc1n[nH]c(C(=O)Nc2cnc3[nH]c(-c4cccc(Cl)c4)cc3c2)c1C [P-2095, N-[2-(3-chlorophenyl)-1H-pyrrolo[2,3-b]pyridin-5-yl]-3,4-dimethyl-1H-pyrazole-5-carboxamide]
< 10 µM | Cc1[nH]nc(C(=O)Nc2cnc3[nH]c(C4=CC(C)(C)NC(C)(C)C4)cc3c2)c1C [P-2266, 4,5-dimethyl-N-(2-(2,2,6,6-tetramethyl-1,2,3,6-tetrahydropyridin-4-yl)-1H-pyrrolo[2,3-b]pyridin-5-yl)-1H-pyrazole-3-carboxamide]
< 10 µM | Cc1cnccc1-c1cc2cc(NC(=O)c3n[nH]c(C)c3C)cnc2[nH]1 [P-2251, 4,5-dimethyl-N-(2-(3-methylpyridin-4-yl)-1H-pyrrolo[2,3-b]pyridin-5-yl)-1H-pyrazole-3-carboxamide]
< 10 µM | Cc1[nH]nc(C(=O)Nc2cnc3[nH]c(-c4ccnc(C5CCN(C(=O)C6CC6)CC5)c4)cc3c2)c1C [P-2207, N-(2-(2-(1-(cyclopropanecarbonyl)piperidin-4-yl)pyridin-4-yl)-1H-pyrrolo[2,3-b]pyridin-5-yl)-4,5-dimethyl-1H-pyrazole-3-carboxamide]
< 10 µM | Cc1nn(C2CNC2)cc1-c1cc2cc(NC(=O)c3n[nH]c(C)c3C)cnc2[nH]1 [P-2195, N-(2-(1-(azetidin-3-yl)-3-methyl-1H-pyrazol-4-yl)-1H-pyrrolo[2,3-b]pyridin-5-yl)-4,5-dimethyl-1H-pyrazole-3-carboxamide]
< 10 µM | Cc1[nH]nc(C(=O)Nc2cnc3[nH]c(-c4ccc(F)cc4F)cc3c2)c1C [P-2260, N-(2-(2,4-difluorophenyl)-1H-pyrrolo[2,3-b]pyridin-5-yl)-4,5-dimethyl-1H-pyrazole-3-carboxamide]
